Measurements taken from PMC2802056 (The Journal of neuroscience : the official journal of the …, 2009).

Assays:
[1] = tested on: proton-gated currents in cortical neurons; assay type: cell-based, mouse; conditions: conditioning pH 7.2
[2] = tested on: ASIC1a; conditions: cited from earlier work; for effect on steady-state desensitization of mouse ASIC1a: ref Sherwood and Askwith, 2008
[3] = biological target: T1, mouse ASIC1a (Mus musculus, UniProt Q6NXK8); test: Competition of Big Dynorphin with PcTx1 for ASIC1a modulation, Xenopus oocytes; assay type: cell-based; conditions: conditioning pH 7.2; PcTx1 0.2 µM or Big Dynorphin 1 µM alone
T1 sequence (Q6NXK8 1-526): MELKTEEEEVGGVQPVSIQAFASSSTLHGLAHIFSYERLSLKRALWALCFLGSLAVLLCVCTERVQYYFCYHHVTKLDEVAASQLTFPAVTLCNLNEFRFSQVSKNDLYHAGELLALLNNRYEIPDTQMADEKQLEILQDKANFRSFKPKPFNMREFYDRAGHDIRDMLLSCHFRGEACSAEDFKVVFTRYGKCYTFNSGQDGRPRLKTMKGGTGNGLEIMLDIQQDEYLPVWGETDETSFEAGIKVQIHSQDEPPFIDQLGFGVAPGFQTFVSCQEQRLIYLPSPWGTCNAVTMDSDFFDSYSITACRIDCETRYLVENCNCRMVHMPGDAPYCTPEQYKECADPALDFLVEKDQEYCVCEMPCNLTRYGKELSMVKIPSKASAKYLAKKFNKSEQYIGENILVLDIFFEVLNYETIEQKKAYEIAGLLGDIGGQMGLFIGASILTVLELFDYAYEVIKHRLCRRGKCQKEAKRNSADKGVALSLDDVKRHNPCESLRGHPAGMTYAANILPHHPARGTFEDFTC

[4] = tested on: ASIC1a:F352L; test: Steady-state desensitization of mutant ASIC1a:F352L; assay type: cell-based, mouse; conditions: peptide alone; conditioning pH 6.65; n = 3

## C=CCN1CC[C@]23c4c5ccc(O)c4O[C@H]2C(=O)CC[C@@]3(O)[C@H]1C5 [Naloxone]
[1]
  effect of antagonist alone on proton-gated current: neither of which had any affect on proton-gated currents alone

## FMRFamide
[2]; ref Salinas et al., 2006
  competition with PcTx1: does not compete with PcTx1
[2]
  effect on steady-state desensitization of mouse ASIC1a: but not FMRFamide, prevented steady-state desensitization of mouse ASIC1a

## FRRFamide
[2]
  effect on steady-state desensitization of mouse ASIC1a: prevented steady-state desensitization of mouse ASIC1a

## PcTx1
[3]
  effect on ASIC1a steady-state desensitization, peptide alone: steady-state desensitization induced by pH 7.2 was enhanced and acid-evoked current was reduced
[2]; ref Escoubas et al., 2000, Chen et al., 2006a, Salinas et al., 2006
  effect on ASIC1a steady-state desensitization: specifically binds the extracellular domain of ASIC1 to enhance the proton-sensitivity of steady-state desensitization
[4]
  effect on steady-state desensitization of ASIC1a:F352L: PcTx1 alone had no effect
